Common to all, as to type: cell-based, human
Test [1] relates to BAX, PMAIP1, HTRA2, TNFRSF 10B, ESRRBL1 mRNA. Briefly: Real-time RT-qPCR of apoptosis-related mRNAs in K562 cells. The settings on record: K562, 18 h, 3 10 µM, 6 5 µM (5× IC50), relative to 1% DMSO, normalized to GAPDH. As to the method: The total RNA pool was isolated from the cells lysates using TriPure Isolation Reagent (Roche, Basel, Switzerland) according to the manufacturer's instruction. Purity and integrity of RNA was checked spectrophotometrically with a NanoDrop ND-1000 spectrophotometer (Thermo Fisher Scientific, Waltham, MA, USA) and Agilent 2100 Bioanalyzer instrument. […] Reverse transcription and polymerase chain reaction (RT-PCR) amplification reactions were performed in one step using a LightCycler® 1.0 Instrument (Roche) and LightCycler RNA Amplification Kit SYBR Green I (Roche). […] The qRT-PCR reactions were optimized for each studied gene and performed according to a general protocol: a reverse transcription reaction (RT) for 10 min. at 55 °C, and a denaturation step for 30 s at 95 °C. The three steps of PCR quantification reaction included: I-denaturation (0 s at 95 °C), II-annealing (10 s at 60 °C), III-product extension (8 s at 72 °C), 45 cycles in total. Subsequent melting experiments were performed by quick denaturation at 95 °C, annealing over 10 s at 65 °C and heating up to 95 °C at 0.1 °C/s. The BAX, PMAIP1, HTRA2, TNFRSF 10B, and ESRRBL1 mRNA levels were normalized against a reference GAPDH mRNA. […]
Background: Quantitative PCR measures a nucleic acid by following its amplification.

Test [2] relates to caspases 8/9. As to the kind of experiment: Caspase-Glo 8 and 9 luminescent activity assay in K562 cells. The settings on record: K562, 5× IC50, 6 h, control 1% DMSO = 1.0. As for the experimental part:
Louis, MO). The induction of cell apoptosis was analyzed by Apo-ONE® Homogeneous Caspase-3/7 Assay (Promega, Madison, WI, USA). […] The fluorescence in each well was measured in triplicate (excitation at 485 nm, emission measured at 520 nm) using a microplate reader FLUOStar Omega (BMG-Labtech, Offenburg, Germany). For normalization of the data, the caspase activity in the control cells (exposed to 1% DMSO) was taken as 1.0. […] Luminescence was measured (in triplicate) using a microplate reader FLUOStar Omega. For normalization of the data, the caspase activity in the control cells (exposed to 1% DMSO) was taken as 1.0.

Test [3] has as its system caspase 8 and caspase 9. Briefly: Western blot of caspase 8 and caspase 9 cleavage in K562 cells. The settings on record: K562, 5 µM. As to the method:
(§1) 0.15 × 10^6 cells/ml were seeded on a 6-well plate (Nunclon, Thermo Fisher Scientific, Waltham, MA, USA). Following 24 hour preincubation the cells were treated with either the compound or 1% DMSO (control) for 24 or 48 hours. Cells were lysed using RIPA Buffer (Sigma) supplemented with Complete Protease Inhibitor Coctail (Roche, Basel, Switzerland) and PhosSTOP (Roche). Samples containing 20 µg protein were resuspended in 4× Laemmli’s Buffer (Biorad, Hercules, CA, USA), separated on 10% acrylamide gel (TGX Stain-Free Gel Kit, Biorad) and blotted onto nitrocellulose membrane (Panreac Applichem ITW, Darmstadt, Germany). Blots were blocked in 5% non-fat dry milk in TBST (1% (v/v) Tween-20, 140 mM NaCl, 25 mM Trizma, pH = 7.4 adjusted with HCl) for 1 h and incubated overnight with the antibodies against caspase-9 (9502), caspase-8 (9746), caspase-3 (9662), caspase-3 cleaved (9661) and β-actin (3700), all from Cell Signaling Technology, and antibody against poly(ADP-ribose)polymerase (PARP, 551025) from BD Pharmingen. Membranes were incubated with appropriate species-specific secondary antibodies conjugated with HRP (Cell Signaling Technology, Danvers, MA, USA). Blots were developed using ECL substrate (Biorad, Hercules, CA, USA). The experiment was performed in at least three independent biological replicates.

Test [4] deals with caspase 3 and PARP. As to the kind of experiment: Western blot of caspase 3 and PARP cleavage in K562 cells. The settings on record: 24 h. As to the method: as §1
A general note: Immunoblotting shows a protein as a band on a membrane.

Take `CCC12C(=O)C(CC)(C(c3ccccc3)=C1c1ccccc1)C1C(=O)N(CCN3CCCCC3)C(=O)C12` (stereo not shown) [Compound 3]: the “expression of mRNAs of receptor (TNFRSF 10B, ESRRBL1) and mitochondrial (BAX, PMAIP1, HTRA2) apoptotic pathways” value in test [1] is “significantly induced”. Further, the “increase of activity of caspases 8/9 compared to the control” value in test [2] is “more than 2 fold”.

On to `CCC12C(=O)C(CC)(C(c3ccccc3)=C1c1ccccc1)C1C(=O)N(CC(O)CNC(C)C)C(=O)C12` (stereo not shown) [Compound 5], for which the “cleavage of caspase 8 and caspase 9 (Western blot)” value is recorded as “cleaved form of caspase 9” in test [3] (24 h) and “Cleaved (i.e., activated) forms of caspases 8/9 were detected” in test [3] (48 h). Besides, the “caspase 3 and PARP cleavage (Western blot)” value in test [4] is “presence of cleavage fragments of PARP (85 kDa) and caspase 3 (17 kDa)”.

Consider `CN(C)CCN1C(=O)C2C(C1=O)C1(c3ccccc3)CC2(c2ccccc2)C(c2ccccc2)=C1c1ccccc1` (stereo not shown) [Compound 6], for which the “expression of mRNAs of receptor (TNFRSF 10B, ESRRBL1) and mitochondrial (BAX, PMAIP1, HTRA2) apoptotic pathways” value in test [1] is recorded as “significantly induced”. The “increase of activity of caspases 8/9 compared to the control” value in test [2] is given as “more than 2 fold”.

Values taken from publication PMC6770581, “New Thalidomide-Resembling Dicarboximides Target ABC50 Protein and Show Antileukemic and Immunomodulatory Activities” (Biomolecules, 2019).
